What was measured:
Assay type in all cases: in vivo, rat
[1] = system: TNF-α and IL-10 in peripheral blood; test: ELISA of cytokines in peripheral blood in spinal cord injury model; conditions: 5 nmol/kg tail vein; serum at 1 hour, 6 hours, 1 day, 3 days, 5 days; vs control
Protocol: (§1) For the present experiment, male white mice (Sprague-Dawley 240-250 g, 7 weeks, 10 mice) were under general anesthetics by an intraperitoneal injection of Ketamin (80 mg/kg, Yuhan Corporation) and Rompun (7.4 mg/kg, Bayer Korea Corporation). Laminectomy was performed at spine T9-10 level to expose a spinal cord keeping intact dura. And then, rat was put on Spinal cord dropping device (NYU); spine processes at T8 and T11 sites were fixed by using a clamp, respectively; then, a rod (diameter 2 mm, weight 10 g) was dropped from 25 mm height vertical to dorsal part of spinal cord followed by suturing injury site muscle and skin. The rat of Sham-operated control group was performed only laminectomy at same area without damaging spinal cord injury (marked by ‘sham” in figures; hereinafter, the same as above). […]
At immediately, 1 d, 2 ds, in order to investigate an effect of Substance P in cytokine in a peripheral blood, Substance P (5 nmol/kg in saline) or saline (the same volume without Substance P) was injected through tail vein, respectively using the same method as (1) of Example 1. […] Finally, The levels of TNF-α and IL-10 were measured by using ELISA kit (R&D Systems).

spinal cord injury = test: Ethologic change test, BBB locomotor rating scale after spinal cord injury
Protocol: For the present experiment, male white mice (Sprague-Dawley 240-250 g, 7 weeks, 10 mice) were under general anesthetics by an intraperitoneal injection of Ketamin (80 mg/kg, Yuhan Corporation) and Rompun (7.4 mg/kg, Bayer Korea Corporation). Laminectomy was performed at spine T9-10 level to expose a spinal cord keeping intact dura. And then, rat was put on Spinal cord dropping device (NYU); spine processes at T8 and T11 sites were fixed by using a clamp, respectively; then, a rod (diameter 2 mm, weight 10 g) was dropped from 25 mm height vertical to dorsal part of spinal cord followed by suturing injury site muscle and skin. The rat of Sham-operated control group was performed only laminectomy at same area without damaging spinal cord injury (marked by ‘sham” in figures; hereinafter, the same as above). Substance P (marked by ‘SP’ in figures; hereinafter, the same as above) dissolved in saline of 5 nmol/kg concentration was injected through tail vein at immediately, 24 hours, and 48 hours after a spinal cord injury for experimental groups. At sham control group, same volume of saline (marked by ‘vehicle’ in figures; hereinafter, the same as above) without Substance P was injected at same time points. Operation were performed on an electric heating pad of 37° C., and then rat were transferred to cage after awake from the anesthetic. • (2) Preparation of Tissue An ethologic change test was performed as follows: an experimental animal was put to a large basin having soft and non-smooth bottom (Width 90 cm×Length 130 cm×Height 30 cm); then body's balance states and moving states of hind-leg's coxalgic pelvis, knee joint, and ankle joint were observed when freely walking; then it was converted into a score based on Basso-Bresnahan-Beattie (BBB) locomotor rating scale (Basso et al., 1995); and then four researchers performed a blind technique. Substance P or saline was injected to a tail vein of rat, respectively at immediately, 1 d, 2 d after a spinal cord injury, using the same method as (1) of Example 1. And then, for the experimental group (10 rats/group) and the control (9 rats/group), an ethologic change due to a spinal cord injury was observed and estimated for different periods, such as after injuring, 1 week, 2 weeks, 3 weeks, 4 weeks, 5 weeks, […], and 6 weeks. A mean value of scores (BBB scores) observed by four researchers was taken, and the results thereof were statistically analyzed. The statistical analysis was performed in a method of two-way ANOVA with post hoc Tukey test.

[2] = system: M2 (ED1 positive, CD206 positive) phenotype macrophages; test: MACS assay of M1/M2 phenotype macrophages in spinal cord injury model; conditions: tail vein injection, five days after spinal cord injury
Protocol: as §1, with “skin.” for “skin. The rat of Sham-operated control group was performed only laminectomy at same area without damaging spinal cord injury (marked by ‘sham” in figures; hereinafter, the same as above).”
Microglia and macrophage have an inflammatory macrophage phenotype (M1) and selectively activated macrophage phenotype (M2). […] MACS (Miltenyi Biotec, Bergisch Gladbach) assay was performed in order to determine a quantitative amount of M1 (ED1 positive, CD206 negative) and M2 (ED1 positive, CD206 positive) phenotype macrophages after Substance P-injection in a spinal cord injury model.
At immediately, 1 d, 2d, Substance P or saline (the same volume without Substance P) was injected to a tail vein after a spinal cord injury, using the same method as (1) of Example 1. […] Magnetically labeled cells were collected by washing the column and then counted. […]

For Substance P, the “level of IL-10 in peripheral blood” value [1] was “no meaningful differences”, the “level of TNF-α in peripheral blood” value [1] was “no meaningful differences” and the motor skill (spinal cord injury; from 14 days, vs control) was “meaningful improved”. For the same substance, the motor skill (spinal cord injury; from about 5 weeks, vs control) was “meaningfully recovered and improved”, the “spinal cord nerve function” value (spinal cord injury; from about one week after administrating, vs control) was “beginning to recover” and the BBB score (spinal cord injury; tail vein injection at immediately, 1 d, 2 d after injury, at 6 weeks, P<0.05 vs control) was 11.5±0.5. The “CD-206 positive percentage as compared with the control” value [2] was “about 6.5 times” and the “activated microglia/macrophages CD-206 positive” value [2] was 58.7%.

From patent publication US9078851B2, “Composition for preventing or treating a spinal cord injury” (UNIVERSITY-INDUSTRY COOPERATION GROUP OF KYUNG HEE, priority 2009, dated 2015)
